Experimental data: patent US10604785B2 (priority 2016, dated 2020)
Residues, ends and D or L forms follow the SMILES beside them. *: point of attachment. Cbz = O=C(OCc1ccccc1)*

Test system: Rab33b
Assay type: cell-based

CC(C)C[C@@H](C=O)NC(=O)[C@H](CC(C)C)NC(=O)[C@H](CC(C)C)NC(=O)OCc1ccccc1 [MG132] (Cbz-Leu-Leu-Leu-aldehyde)
effect on level of modified Rab33b: does not affect the level of modified Rab33b
